Where “and” joins values, the source holds several entries; their conditions need not be identical. Equal entries are not always repeated. Toxic doses and inconclusive results are not listed. The calls were made as follows: active = survival T/C of 150% or more; inactive = T/C below 125% in these data.
Tested on: BDF1 mice, B16 melanoma ip, median survival T/C
Test: NCI In Vivo Anticancer Drug Screen. Data for tumor model B16 Melanoma (intraperitoneal) in B6D2F1 (BDF1) mice
Conditions: endpoint: median survival time, higher = longer survival
Procedure, shortened: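 Mice with transplantable tumors; drug vs vehicle groups; endpoint survival or tumor size; value = T/C.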

[1] = dose: 100.0 mg/kg/injection, schedule: Q01DX009 (ip), vehicle: saline
[2] = dose: 200.0 mg/kg/injection, schedule: Q01DX009 (ip), vehicle: saline
[3] = dose: 25.0 mg/kg/injection, schedule: Q01DX009 (ip), vehicle: saline with Tween-80
[4] = dose: 50.0 mg/kg/injection, schedule: Q01DX009 (ip), vehicle: saline with Tween-80
[5] = dose: 50.0 mg/kg/injection, schedule: Q01DX009 (ip), vehicle: saline

Measured: T/C

Cc1cn(C2CC(O)C(CO)O2)c(=O)[nH]c1=O (stereo unspecified)
inactive: dose: 12.5 mg/kg/injection, schedule: Q01DX009 (ip), vehicle: saline 88 % of control | dose: 32.0 mg/kg/injection, schedule: Q01DX009 (ip), vehicle: saline with Tween-80 111 % of control | dose: 32.0 mg/kg/injection, schedule: Q01DX009 (ip), vehicle: saline 95 % of control and 108 % of control | dose: 50.0 mg/kg/injection, schedule: Q03HX032 (ip), vehicle: saline 105 % of control | dose: 64.0 mg/kg/injection, schedule: Q01DX009 (ip), vehicle: saline with Tween-80 120 % of control | dose: 64.0 mg/kg/injection, schedule: Q01DX009 (ip), vehicle: saline 100 % of control and 101 % of control | [1] 103 % of control | dose: 100.0 mg/kg/injection, schedule: Q03HX032 (ip), vehicle: saline 97 % of control | dose: 128.0 mg/kg/injection, schedule: Q01DX009 (ip), vehicle: saline with Tween-80 120 % of control | dose: 128.0 mg/kg/injection, schedule: Q01DX009 (ip), vehicle: saline 98 % of control and 103 % of control | dose: 150.0 mg/kg/injection, schedule: Q02HX012 (ip), vehicle: saline 103 % of control | [2] 89 % of control | dose: 200.0 mg/kg/injection, schedule: Q02HX012 (ip), vehicle: saline 102 % of control | dose: 200.0 mg/kg/injection, schedule: Q03HX032 (ip), vehicle: saline 89 % of control | dose: 256.0 mg/kg/injection, schedule: Q01DX009 (ip), vehicle: saline with Tween-80 120 % of control | dose: 256.0 mg/kg/injection, schedule: Q01DX009 (ip), vehicle: saline 96 % of control and 102 % of control | dose: 300.0 mg/kg/injection, schedule: Q02HX012 (ip), vehicle: saline 102 % of control | dose: 400.0 mg/kg/injection, schedule: Q02HX012 (ip), vehicle: saline 102 % of control | dose: 400.0 mg/kg/injection, schedule: Q03HX032 (ip), vehicle: saline 92 % of control | dose: 512.0 mg/kg/injection, schedule: Q01DX009 (ip), vehicle: saline with Tween-80 91 % of control | dose: 512.0 mg/kg/injection, schedule: Q01DX009 (ip), vehicle: saline 104 % of control and 107 % of control | dose: 600.0 mg/kg/injection, schedule: Q02HX012 (ip), vehicle: saline 97 % of control

Nc1ncnc2c1ccn2C1OC(CO)C(O)C1O (stereo unspecified)
inactive: dose: 0.32 mg/kg/injection, schedule: Q01DX009 (ip), vehicle: saline 107 % of control | dose: 0.5 mg/kg/injection, schedule: Q01DX009 (ip), vehicle: Klucel (hydroxypropylcellulose) (HPC) 91 % of control | dose: 0.63 mg/kg/injection, schedule: Q01DX009 (ip), vehicle: saline 120 % of control | dose: 1.0 mg/kg/injection, schedule: Q01DX009 (ip), vehicle: Klucel (hydroxypropylcellulose) (HPC) 99 % of control | dose: 2.0 mg/kg/injection, schedule: Q01DX009 (ip), vehicle: Klucel (hydroxypropylcellulose) (HPC) 90 % of control

CCN(C)CCN(C)CC
inactive: [1] 95 % of control | [2] 109 % of control

Oc1ccc(/C=N/Nc2nnc(N/N=C/c3ccc(O)cc3O)c3ccccc23)c(O)c1
inactive: dose: 3.13 mg/kg/injection, schedule: Q01DX009 (ip), vehicle: suspension in saline 101 % of control | dose: 6.25 mg/kg/injection, schedule: Q01DX009 (ip), vehicle: suspension in saline 98 % of control | dose: 12.5 mg/kg/injection, schedule: Q01DX009 (ip), vehicle: suspension in saline 89 % of control | dose: 25.0 mg/kg/injection, schedule: Q01DX009 (ip), vehicle: suspension in saline 90 % of control

CCN1C[C@]2(COC)[C@H](O)C[C@H](OC)[C@]34C1[C@H]([C@H](OC)[C@H]23)[C@]1(OC(C)=O)[C@H]2[C@@H](OC(=O)c3ccccc3)[C@](O)(C[C@H]24)[C@@H](OC)[C@@H]1O
inactive: dose: 15.0 micrograms/kg/injection, schedule: Q01DX009 (ip), vehicle: Klucel (hydroxypropylcellulose) (HPC) 92 % of control | dose: 60.0 micrograms/kg/injection, schedule: Q01DX009 (ip), vehicle: Klucel (hydroxypropylcellulose) (HPC) 89 % of control | dose: 120.0 micrograms/kg/injection, schedule: Q01DX009 (ip), vehicle: Klucel (hydroxypropylcellulose) (HPC) 94 % of control

N#CC(=C1C=CC(=NO)C=C1)c1ccc(Cl)cc1
inactive: dose: 6.25 mg/kg/injection, schedule: Q01DX009 (ip), vehicle: saline with Tween-80 88 % of control | dose: 12.5 mg/kg/injection, schedule: Q01DX009 (ip), vehicle: saline with Tween-80 95 % of control | [3] 87 % of control | [4] 86 % of control

C[CH2][Ge]1([CH2]C)[CH2]CC2(CCN(CCCN(C)C)C2)C[CH2]1
inactive: dose: 8.0 mg/kg/injection, schedule: Q02DX009 (ip), vehicle: saline 102 % of control | dose: 16.0 mg/kg/injection, schedule: Q02DX009 (ip), vehicle: saline 106 % of control | dose: 32.0 mg/kg/injection, schedule: Q02DX009 (ip), vehicle: saline 102 % of control

C#CC[N+]12CN3CN(CN(C3)C1)C2
inactive: [5] 104 % of control | [1] 100 % of control | [2] 107 % of control

CC(=O)NC(CC(C)C)C(=O)O (stereo unspecified)
inactive: [3] 108 % of control | [4] 121 % of control | dose: 100.0 mg/kg/injection, schedule: Q01DX009 (ip), vehicle: saline with Tween-80 101 % of control

C[n+]1c(/C=C/c2ccc(O)c3ncccc23)[se]c2ccccc21
inactive: dose: 0.38 mg/kg/injection, schedule: Q01DX009 (ip), vehicle: saline 102 % of control | dose: 0.75 mg/kg/injection, schedule: Q01DX009 (ip), vehicle: saline 109 % of control | dose: 1.5 mg/kg/injection, schedule: Q01DX009 (ip), vehicle: saline 106 % of control | dose: 3.0 mg/kg/injection, schedule: Q01DX009 (ip), vehicle: saline 109 % of control and 115 % of control | dose: 6.0 mg/kg/injection, schedule: Q01DX009 (ip), vehicle: saline 106 % of control and 124 % of control | dose: 12.0 mg/kg/injection, schedule: Q01DX009 (ip), vehicle: saline 115 % of control | dose: 24.0 mg/kg/injection, schedule: Q01DX009 (ip), vehicle: saline 122 % of control

CCCNCCN
inactive: dose: 25.0 mg/kg/injection, schedule: Q01DX009 (ip), vehicle: saline 109 % of control | [5] 116 % of control | [1] 96 % of control

COc1ccc(C(=O)C(C)C(O)C(=O)O)c(O)c1C (stereo unspecified)
inactive: dose: 100.0 mg/kg/injection, schedule: Q01DX009 (ip), vehicle: other 93 % of control

COc1ccc(C(Nc2ccccc2)C(=O)c2ccccc2)cc1 (stereo unspecified)
inactive: dose: 3.12 mg/kg/injection, schedule: Q01DX009 (ip), vehicle: Klucel (hydroxypropylcellulose) (HPC) 90 % of control | dose: 6.25 mg/kg/injection, schedule: Q01DX009 (ip), vehicle: Klucel (hydroxypropylcellulose) (HPC) 106 % of control | dose: 12.5 mg/kg/injection, schedule: Q01DX009 (ip), vehicle: Klucel (hydroxypropylcellulose) (HPC) 89 % of control | dose: 25.0 mg/kg/injection, schedule: Q01DX009 (ip), vehicle: Klucel (hydroxypropylcellulose) (HPC) 89 % of control and 90 % of control

CC1(O)CC2CCC1C2 (stereo unspecified)
inactive: dose: 100.0 mg/kg/injection, schedule: Q04DX003 (ip), vehicle: saline with Tween-80 102 % of control | dose: 200.0 mg/kg/injection, schedule: Q04DX003 (ip), vehicle: saline with Tween-80 102 % of control | dose: 400.0 mg/kg/injection, schedule: Q04DX003 (ip), vehicle: saline with Tween-80 100 % of control

CC(=O)Nc1ccn(C2OC(COC(C)=O)C(OC(C)=O)C2OC(C)=O)c(=O)n1 (stereo unspecified)
inactive: dose: 150.0 mg/kg/injection, schedule: Q01DX009 (ip), vehicle: saline with Tween-80 103 % of control | dose: 300.0 mg/kg/injection, schedule: Q01DX009 (ip), vehicle: saline with Tween-80 114 % of control | dose: 600.0 mg/kg/injection, schedule: Q01DX009 (ip), vehicle: saline with Tween-80 119 % of control | dose: 1200.0 mg/kg/injection, schedule: Q01DX009 (ip), vehicle: saline with Tween-80 123 % of control

Source: PubChem BioAssay AID192 (DTP/NCI, 2004)
